Consider seven molecules from publication PMC7999550, “Novel Multifunctional Ascorbic Triazole Derivatives for Amyloidogenic Pathway Inhibition, Anti-Inflammation, and Neuroprotection” (Molecules, 2021).

The test system of series [1] is P19-derived neurons. In words: Viability assay (XTT) on P19-derived neurons. The series is classed as cell-based. Conditions: 18 h, nontoxic condition, versus 0.5% DMSO, derivatives at 1 nM. Here is the method:
(§1) P19 cells were grown in alpha minimal essential medium (α-MEM) supplemented with 7.5% newborn calf serum (NCS), 2.5% fetal bovine serum (FBS), and 1% antibiotics–antimycotic solution in a 5% CO2 humidified atmosphere at 37 °C. Cells in monolayer cultures were maintained in exponential growth by subculturing every two days.
(§2) Exponentially grown cultures were trypsinized and dissociated into single cells. P19 cells (2 × 10^6 cells/mL) were then suspended in 10 mL α-MEM supplemented with 5% FBS, 1% antibiotics–antimycotic solution, and 0.5 µM all transretinoic acid (RA) and seeded onto a 100-mm bacteriological culture dish. The cells formed large aggregates in suspension. After four days of RA treatment, the aggregates were dissociated by 5-mL glass measuring pipette and replated on poly-L-lysine-precoated multiwell plates (the multiwell plates were coated with 50 µg/mL poly-L-lysine, dissolved in PBS overnight, and sterilized under UV light for 30 min) at 7 × 10^4 cells/mL (150 µL/well in 96-well plate) in α-MEM supplemented with 10% FBS and 1% antibiotics–antimycotic solution and incubated for 24 h. Cytosine-1-β-D-arabinoside or Ara-C (10 µM) was added at day 1 after plating, and the medium was changed every two to three days. The differentiated neuronal cells, P19-derived neurons, were used after day 14 of the differentiation process.
The assay was carried out on P19-derived neurons cultured in a 96-well plate. After 14 days of the differentiation process, the α-MEM, supplemented with 10% FBS, 10 μM Ara-C, and 1% antibiotics–antimycotic solution, was removed and DMSO solutions of the sample, diluted with α-MEM supplemented with 10% FBS and 1% antibiotics–antimycotic solution in the presence of 10 μM Ara-C, were added to produce the concentrations of 10,000, 1000, 100, 10, and 1 nM. A concentration of DMSO was added to the cultures at 0.5% v/v. […] The OD value was determined by using a microplate reader at 450 nm. Data were expressed as mean ± SEM (n = 3, each n was run in triplicate), with the medium as a control, representing 100% cell viability. […]

A further series deals with T1, BACE1 (Homo sapiens, UniProt P56817).
T1 construct: purchased Sino Biological, Beijing, China
In words: β-Secretase (BACE1) inhibition assay (FRET). The series is classed as biochemical. Conditions: for inhibition at 400 µM: at a concentration of 400 µM, mean ± SEM, n = 3. Here is the method:
All ascorbic derivatives (2a–2c and 5a–5c), at a concentration of 400 µM, were evaluated for β-secretase inhibitory activities by using the FRET assay. Briefly, the reaction composing 30 µL of 0.01 unit/µL BACE1 enzyme stock solution, 20 µL of 5% DMSO of test compound, 30 µL of sodium acetate buffer (pH 4.5), and 20 µL of 125 µM β-secretase substrate IV (Calbiochem®, San Diego, CA, USA) was incubated at 37 °C for 30 min. Fluorescence was then measured at Ex = 380 nm and Em = 510 nm using a SpectraMax Gemini EM™, San Jose, CA, USA [26, 61]. β-secretase inhibitor I (Anaspec®, Fremont, CA, USA) was used as a positive control, at a concentration of 100 µM. The experiments were performed in triplicate. For the compounds exerting inhibitory activities more than 20%, an IC50 value was further determined.

The test system of the next series is COX-2. In words: COX-2 mRNA expression in LPS-activated RAW 264.7 (RT-qPCR). The series is classed as cell-based, murine. Conditions: 10 and 100 nM, 1 h pretreatment before LPS, n = 3, p < 0.05. Here is the method:
(§3) Cell lines that reached 80% confluence within 48 h were selected for further gene expression study. […] The experiment was conducted in triplicate. After the cell lines were treated with the testing samples for one hour, 2 μg/mL LPS (lipopolysaccharide; Sigma-Aldrich, St. Louis, MO, USA) was added to the cell lines and then maintained in an incubator for another 24 h to induce the cell inflammatory process. […] Total RNA quality and quantity were examined by NanoDrop. An equivalent of 2000 ng total RNA from each sample was then reverse-transcribed to produce first-strand complementary DNA (cDNA) using a Tetro cDNA Synthesis Kit (Bioline USA Inc., Memphis, TN, USA), according to the manufacturer's instruction. Briefly, the total RNA template was mixed with 4 μ[…] buffer, 1 μL oligo dT(18), 1 μL dNTP mix […], 1 μL Rnase inhibitor, and 1 μL reverse transcriptase. Diethylpyrocarbonate (DEPC)-treated water was then added to a mixture to adjust the volume to a final 20-μl reaction. An incubation process to produce first strand cDNA was carried out in a thermal cycler (SensoQuest Labcycler). Primer annealing and strand extending occurred at 45 °C for 30 min and a reverse transcriptase was finally heat-inactivated at 85 °C for 5 min. The corresponding cDNA products were then used as a template in a quantitative polymerase chain reaction (qPCR) to study COX-2 and iNOS gene expressions, with GAPDH as a reference gene. The primer sequences for qPCR quantifications were as follows: COX-2: [NT] (reverse); iNOS: [NT] (reverse), and GAPDH: [NT] (reverse). […] Then, 20 μL qPCR reaction was prepared by mixing a 1-μL cDNA template with 0.8 μL forward primer […], 0.8 μL reverse primer […], 10 μL SYBR, and 7.4 μL DI water. Gene expression was measured in a 96-well plate using a BIO-RAD iCycler IQ^TM5 detection system. qPCR reaction was initially heated to 95 °C 10 min, and then underwent 40 cycles of 95 °C 15 s and 60 °C 1 min. […] Each corresponding expression was computed as a relative fold change using the 2^-delta delta Ct method, normalized to the GAPDH gene.
(In general: Real-time PCR tracks product formation cycle by cycle.)

The nature of series [2]: Antioxidant activity assay (DPPH). Conditions: for Antioxidant %Inhibition (±SEM): at a concentration of 400 µM, mean ± SEM, n = 3. Here is the method:
[…] The reaction was a mixture of 70 µL of DPPH solution (500 µM in 80% methanol), 10 µL of 80% methanol, and 20 µL of test compound. The reaction was incubated at room temperature in the dark for 30 min. The absorbance was then measured at 517 nm using Infinite 200 Pro™ (Tecan). Ascorbic acid was used as a positive control.
(Loss of DPPH colour is used to gauge radical scavenging.)

The next series has as its system iNOS. In words: iNOS mRNA expression in LPS-activated RAW 264.7 (RT-qPCR). The series is classed as cell-based, murine. Particulars: 10 and 100 nM, 1 h pretreatment before LPS, n = 3, p < 0.05. Here is the method: as §3
In a further series the target is T2, amyloid-β (1-42) peptide (Homo sapiens, UniProt P05067).
T2 construct: 9 µL of 25 μM working solution of amyloid-β (1-42) peptide; purchased Anaspec, Fremont, CA, USA
In words: Amyloid aggregation inhibition assay (ThT). The series is classed as biochemical. Particulars: for inhibition at 400 µM: at a concentration of 400 µM, ThT, 48 h. Here is the method: The ascorbic derivatives ware evaluated for activities of amyloid β aggregation inhibition at a concentration of 400 µM. Briefly, in each well of transparent plate, 9 µL of 25 μM working solution of amyloid-β (1-42) peptide and 1 µL of test compound were gently mixed and then incubated in the dark at 37 °C for 48 h. After the incubation, 200 µL of 5 µM ThT (Sigma®, Saint Louis, MO, USA) in 50 mM Tris buffer (pH 7.4) was added to each well. Fluorescence was then measured at Ex = 446 nm and Em = 480 nm using a SpectraMax Gemini EM™, San Jose, CA, USA [26, 62]. Curcumin was used as a positive control, at a concentration of 100 µM.

Series [3] has as its system P19-derived neurons. In words: Neuroprotective assay, serum-deprivation-induced oxidative stress (XTT). The series is classed as cell-based. Particulars: 1 nM, p > 0.05. As for the experimental part: as §1
as §2, with “Cytosine-1-β-D-arabinoside or Ara-C (10 µM) was added at day 1 after plating, and the medium was changed every two to three days. The differentiated neuronal cells, P19-derived neurons, were used after day 14 of the differentiation process.” left out
The assay was carried out with P19-derived neurons cultured in a 96-well plate by using the serum-deprivation method. […] Data were expressed as mean ± SEM (n = 3, each n was run in triplicate), with the medium as a control, representing 100% cell viability. […]
Background: Tetrazolium dyes change colour on reduction, which living cells bring about.

One may read the inhibition as the relative decrease from the control value, in per cent. Lower therefore signals a response near the control. As usually defined, the IC50 is the point on the concentration scale where inhibition reaches its midpoint. As a reminder, the melting point is the temperature of the solid-liquid transition.

Molecules are shown by their SMILES.

T2 sequence (P05067 672-713 limits assumed): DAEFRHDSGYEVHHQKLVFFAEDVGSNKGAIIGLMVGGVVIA
T1 sequence (P56817 46-501): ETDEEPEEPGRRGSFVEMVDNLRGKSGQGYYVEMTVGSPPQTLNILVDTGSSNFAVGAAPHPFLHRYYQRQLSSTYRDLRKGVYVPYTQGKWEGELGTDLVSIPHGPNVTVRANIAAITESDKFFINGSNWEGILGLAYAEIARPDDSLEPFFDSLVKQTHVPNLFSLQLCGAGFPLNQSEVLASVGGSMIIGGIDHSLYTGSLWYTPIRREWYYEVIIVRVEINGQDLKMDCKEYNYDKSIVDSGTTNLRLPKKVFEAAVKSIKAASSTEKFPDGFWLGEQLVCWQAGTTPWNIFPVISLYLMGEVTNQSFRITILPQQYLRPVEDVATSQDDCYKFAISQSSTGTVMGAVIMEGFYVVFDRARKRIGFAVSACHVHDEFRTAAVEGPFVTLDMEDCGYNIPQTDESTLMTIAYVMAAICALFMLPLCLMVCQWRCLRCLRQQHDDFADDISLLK

Consider `O=C1O[C@H]([C@@H](O)CO)C(O)=C1O` [Ascorbic acid, reference compound], for which the “cytotoxicity / cell viability of P19-derived neurons” value with P19-derived neurons [1] was “decreased”. Also, the inhibition at 400 µM against BACE1 worked out at 7.84 ± 1.75%; against amyloid-β (1-42) peptide (mean ± SEM, n = 3), 63.4 ± 0.87%. Moreover, the “expression of COX-2 gene compared to 0.001% DMSO control” value in the series with COX-2 is on record as “downregulate”. The IC50 is 21.3 µM in series [2] and 146 µM on amyloid-β (1-42) peptide. For the same molecule, the “Antioxidant %Inhibition (±SEM)” value in series [2] turned out to be 94.85 ± 0.62%. In addition, the “expression of iNOS gene compared to 0.001% DMSO control” value with iNOS is “downregulate”.

In the case of `COc1cc(Cn2cc(COC[C@H](O)[C@H]3OC(=O)C(O)=C3O)nn2)ccc1O` [Compound 2b, (R)-3,4-Dihydroxy-5-((S)-1-hydroxy-2-((1-(4-hydroxy-3-methoxybenzyl)-1H-1,2,3-triazol-4-yl)methoxy)ethyl)furan-2(5H)-one], the inhibition at 400 µM against BACE1 was determined as 6.29 ± 0.98%; on amyloid-β (1-42) peptide (mean ± SEM, n = 3) it was 51 ± 2.12%. Besides, the “neuroprotective activity compared with quercetin (positive control)” value in the series on P19-derived neurons [3] is given as “no statistical differences”. Moreover, the IC50 in series [2] was determined as 156 µM; against amyloid-β (1-42) peptide, 319 µM. The “Antioxidant %Inhibition (±SEM)” value in series [2] was 62.81 ± 2.62 %.

`O=C1O[C@H]([C@@H](O)COCc2cn(CC3Cc4c([nH]c5ccccc45)CN3)nn2)C(O)=C1O` (stereo partly drawn) [Compound 2c, (R)-3,4-Dihydroxy-5-((S)-1-hydroxy-2-((1-((2,3,4,9-tetrahydro-1H-pyrido[3,4-b]indol-3-yl)-methyl)-1H-1,2,3-triazol-4-yl)methoxy)ethyl)furan-2(5H)-one] displayed a melting point of 172 to 174 °C. On BACE1, this molecule showed an IC50 of 726 µM and an inhibition at 400 µM of 23.5 ± 1.66%. Also, in the series on COX-2, the “expression of COX-2 gene compared to 0.001% DMSO control” value is on record as “downregulate”. In series [2], the midpoint of inhibition, the IC50, lay at 72.3 µM and the “Antioxidant %Inhibition (±SEM)” value turned out to be 94.67 ± 0.50%. Also, the “expression of iNOS gene compared to 0.001% DMSO control” value in the series on iNOS is recorded as “downregulate”. In addition, the IC50 against amyloid-β (1-42) peptide worked out at 92.3 µM. Further, at 400 µM the inhibition at amyloid-β (1-42) peptide (mean ± SEM, n = 3) was 71.8 ± 1.42%.

On to `O=C1O[C@H]([C@@H](O)CO)C(OCc2cn(Cc3ccc(O)cc3)nn2)=C1O` [Compound 5a, (R)-5-((S)-1,2-Dihydroxyethyl)-3-hydroxy-4-((1-(4-hydroxybenzyl)-1H-1,2,3-triazol-4-yl)-methoxy)furan-2(5H)-one], for which, in series [2], 91.2 µM corresponded to half-maximal inhibition (IC50) and the “Antioxidant %Inhibition (±SEM)” value is on record as 78.42 ± 0.93 %. The same molecule showed an inhibition at 400 µM against amyloid-β (1-42) peptide (mean ± SEM, n = 3) of 34.5 ± 3.62%.

In the case of `COc1cc(Cn2cc(COC3=C(O)C(=O)O[C@@H]3[C@@H](O)CO)nn2)ccc1O` [Compound 5b, (R)-5-((S)-1,2-Dihydroxyethyl)-3-hydroxy-4-((1-(4-hydroxy-3-methoxybenzyl)-1H-1,2,3-triazol-4-yl)methoxy)furan-2(5H)-one], in series [2], the IC50 was found to be 103 µM and the “Antioxidant %Inhibition (±SEM)” value was 77.37 ± 1.60 %. The same molecule had an inhibition at 400 µM against amyloid-β (1-42) peptide (mean ± SEM, n = 3) of 19.6 ± 1.83%.

Turning to `O=C1O[C@H]([C@@H](O)CO)C(OCc2cn(CC3Cc4c([nH]c5ccccc45)CN3)nn2)=C1O` (stereo partly drawn) [Compound 5c, (R)-5-((S)-1,2-Dihydroxyethyl)-3-hydroxy-4-((1-((2,3,4,9-tetrahydro-1H-pyrido[3,4-b]indol-3-yl)methyl)-1H-1,2,3-triazol-4-yl)methoxy)furan-2(5H)-one], the melting point is 144 to 146 °C. Moreover, in the series with P19-derived neurons [1], the “cytotoxicity / cell viability of P19-derived neurons” value is recorded as “significantly higher viability than 0.5% DMSO”. At BACE1, this molecule returned an IC50 of 593 µM and an inhibition at 400 µM of 27.3 ± 1.41%. Besides, the “expression of COX-2 gene compared to 0.001% DMSO control” value in the series on COX-2 is “downregulate”. In addition, in series [2], the midpoint of inhibition, the IC50, lay at 62.9 µM and the “Antioxidant %Inhibition (±SEM)” value was found to be 85.84 ± 2.43%. Further, the “expression of iNOS gene compared to 0.001% DMSO control” value with iNOS is on record as “downregulate”. On amyloid-β (1-42) peptide, the midpoint of inhibition, the IC50, lay at 136 µM. For the same molecule, 400 µM produced 68.26 ± 0.67% inhibition against amyloid-β (1-42) peptide (mean ± SEM, n = 3).

`COc1cc(/C=C/C(=O)CC(=O)/C=C/c2ccc(O)c(OC)c2)ccc1O` [Curcumin, reference compound] displayed an inhibition at 100 µM against amyloid-β (1-42) peptide (positive control at 100 μM, mean ± SEM, n = 3) of 94.5 ± 1.15%.
